Laboratory results as given in patent US20150141485A1, “PROGNOSIS AND TREATMENT OF LUNG CANCER USING miRNA-135b” (NATIONAL CHENG KUNG UNIVERSITY, priority 2013, published 2015).
Oligonucleotides are written 5' to 3', each unit as a sugar letter and its base; * is a phosphorothioate linkage, no mark a phosphodiester; rarer units and linkages stand in square brackets, end groups in braces. Plain capitals give the bases only. {Chol} = cholesterol; m = 2'-O-methyl

Experiments:
[1] = test system: pGL3-3′-UTRs of Hippo pathway genes; assay: Luciferase reporter assay, Hippo pathway 3'-UTRs; type: cell-based; conditions: CL1-0 cells co-transfected with miR-135b and pGL3-3′-UTRs, 60 hours
Procedure: CL1-0 cells co-transfected with miR-135b and pGL3-3′-UTRs with scramble (NC) or Antago-135b for 60 hours. Luciferase activity was assayed and is presented a described in FIG. 6a. Mean±s.d. is shown, *P<0.05; **P<0.005 by Student's t-test.
One day before transfection, CL1-0 cells were seeded at a concentration of 2.5×10^4 per well. Next, the pClneo vector or miR-135b plasmid was co-transfected with the pGL3-target gene-3′UTR. The Renilla lunciferase plasmid (phRL-TK, Promega, Madison, Wis.) was co-transfected as transfection control. Cells were lysed 36 hours after transfection, and luciferase activity was measured using a Dual-Luciferase system (Promega, Madison, Wis.) according to the manufacture's protocol.

CL1-5-F4 cells [2] = assay: Soft agar anchorage-independent growth assay; type: cell-based, human; conditions: CL1-5-F4 cells transfected 48 hours, vs NC
Procedure: CL1-5-F4 and Hop-62 cells were transfected with the negative control (NC) or the Anatago-135b for 48 hours and subjected to soft agar assays. Error bars indicate mean±s.d.,*P<0.05 by Student's t-test.

[3] = test system: H441 human lung adenocarcinoma cells; assay: Subcutaneous xenograft tumor growth; type: in vivo, nude mice
Procedure: Nude mice were subcutaneously injected with 5×10^5 H441 cells. Scramble antagomir (NC) or miR-135b Antagomir (antago-135b) was administered via tail vein injection 2 days after implantation. On day 14 after cancer cell implantation, tumor volume measurements began and were performed every 4 days (n=9). Mean±s.e.m. is shown,*P<0.05 by Student's t-test.
Animals were housed in a specific-pathgen-free environment in the animal facility of the Institute of Biomedical Sciences, Academia Sinica. All experimental procedures were in compliance with the Academia Sinica IACUC and Council of Agriculture Guidebook for the Care and Use of Laboratory Animals. For intravenous injections of the tumor cells, 1×10^6 cells were suspended in 0.1 mL of phosphate-buffered saline (PBS) and injected into lateral tail vein of SCID mice (10 mice per group). At 8 weeks after injection, all mice were killed, and lung surface tumor foci were counted. For the subcutaneous tumor assay, 1×10^6 CL1-0 cells or 2×10^5 H441 cells were subcutaneously injected in 0.1 mL of PBS into male nude mice (n=8 per group) and allowed to grow for 35 days to reach a volume of 50-200 mm^3 Control antagomir (Scramble) or anti-miR-135b antagomir (antago-135) was intravenously injected at a concentration of 10 μM in 0.1 mL of PBS 4 days after the cells were implanted. An example of a miR-135b antagomir is 5′mU(*)mC(*)mAmCmAmUmAmG-mGmAmAmUmGmAmAmAmAmGmCmC(*)mA(*)mU(*)mA(*)(3′-Ch1)3′ (SEQ ID NO:8). The mN indicates 2′-O-methyl base;* indicates phosphorothioate linkage; Ch1 indicates cholesterol.

CL1-5-F4 cells [4] = assay: Transwell invasion assay; type: cell-based, human; conditions: CL1-5-F4 cells transfected 48 hours, vs scramble (NC)
Procedure: CL1-5-F4 and Hop-62 cells were transfected with scramble (NC) of miR-135b-specific antagomir (Antago-135b) for 48 hours and the subjected to migration assays (FIG. 2d) and invasion assays (FIG. 2e) as described above. *P<0.05;**P<0.005 by Student's t-test.
CL1-5-F4 cells transfected with plasmids expressing either control or miR-135b sponges were analyzed using in vitro invasion assay. The average number of invading cells obtained in the transwell invasion assay is presented (n=3).
Transwell chambers ([…], BD Falcon, Franklin Lakes, N.J.) were coated with the appropriate amount of Matrigel (BD Biosciences, San Jose, Calif.). Next, 2.5×10^4 cells were suspended in NuSerum-containing media (Gibco BRL, Grand Island N.Y., USA), seeded in the chamber and cultured, Cells that invaded the chamber from top to bottom were fixed with methanol and stained with a solution of propidium iodine (Sigma-Aldrich, St. Louis, Mo.). The propidiumiodine-positive signal was quantified using Analytical Imaging Station software package. Each sample was assayed in triplicate.

UACC-257 cells = assay: Western blot of endogenous LZTS1; type: cell-based; conditions: 100 nM, 48 hours
Procedure: CL1-5-F4 and UACC-257 cells were administrated with 100 nM of negative control (NC) or antago-135b for 48 hours. Total cell lysates were harvested for western blot analysis.

[5] = antagomir systemically injected 4 days after cancer cell implantation

5′mU(*)mC(*)mAmCmAmUmAmG-mGmAmAmUmGmAmAmAmAmGmCmC(*)mA(*)mU(*)mA(*)(3′-Ch1)3′ (SEQ ID NO:8) (mU*mC*mAmCmAmUmAmGmGmAmAmUmGmAmAmAmAmGmCmC*mA*mU*mA*{Chol}) [miR-135b antagomir]
miR-135b-induced reporter activity [1]: decrease
number of cell colonies (soft agar) (CL1-5-F4 cells [2]): decreased
growth of H441 cells ([3]; antagomir administered before xenograft implantation): inhibited
xenograft tumor incidence [3, 5]: significantly reduced
xenograft tumor volume [3, 5]: significantly reduced
invasive ability (CL1-5-F4 cells [4]): inhibited these changes
LZTS1 expression (UACC-257 cells): significantly increased
